In patent US10239832B2, “N-(1-hydroxy-3-(pyrrolidinyl)propan-2-yl)pyrrolidine-3-carboxamide derivatives as glucosylceramide synthase inhibitors” (BIOMARIN PHARMACEUTICAL INC., priority 2013, dated 2019):

target: T1, GCS (Canis lupus familiaris, UniProt A0A8I3MXG6); assay: GCS enzymatic assay (MDCK cell lysate, NBD-ceramide to glucosylceramide, LC/MS); type: biochemical, canine; conditions: Table 2; class symbols A, B, C; the table does not say which of the assays; read-out: Data Range (IC50 values)
T1 construct: endogenous in cells; host or cells: MDCK (Madin-Darby canine kidney) cells, whole-cell lysate
T1 sequence (A0A8I3MXG6 1-394): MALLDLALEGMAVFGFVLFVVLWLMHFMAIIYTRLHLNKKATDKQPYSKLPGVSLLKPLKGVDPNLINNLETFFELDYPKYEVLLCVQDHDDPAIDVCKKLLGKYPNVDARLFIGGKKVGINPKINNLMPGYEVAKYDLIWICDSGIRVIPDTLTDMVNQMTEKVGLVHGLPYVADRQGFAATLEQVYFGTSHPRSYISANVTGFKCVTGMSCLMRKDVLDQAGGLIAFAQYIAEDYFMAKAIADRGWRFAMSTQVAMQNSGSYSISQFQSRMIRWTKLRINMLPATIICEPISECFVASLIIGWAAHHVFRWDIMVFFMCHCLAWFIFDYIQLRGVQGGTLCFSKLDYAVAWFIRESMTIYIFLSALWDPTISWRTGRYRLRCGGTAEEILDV
Procedure, shortened: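 Dog MDCK cell lysate served as enzyme source, with NBD-ceramide turned over to glucosylceramide and 0.1% DMSO as mock control. The reaction was stopped with acetonitrile. Both lipids were quantified by LC/MS/MS in ESI positive MRM mode against a tolbutamide internal standard, giving IC50 or percent inhibition.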

| IC50 | Structure (SMILES) |
| --- | --- |
| 0.001 to 0.03 µM | O=C(N[C@H](CN1CCCC1)[C@H](O)c1ccc(OC2CCOCC2)c(Cl)c1)[C@@H]1CCN(c2ccc3cc(F)ccc3c2)C1 [Compound 50, (R)-N-((1R,2R)-1-(3-chloro-4-((tetrahydro-2H-pyran-4-yl)oxy)phenyl)-1-hydroxy-3-(pyrrolidin-1-yl)propan-2-yl)-1-(6-fluoronaphthalen-2-yl)pyrrolidine-3-carboxamide] |
| 0.001 to 0.03 µM | O=C(N[C@H](CN1CCCC1)[C@H](O)c1cc(F)c2c(c1)OCCO2)[C@@H]1CCN(c2ccc3cc(F)ccc3c2)C1 [Compound 52, (R)-N-((1R,2R)-1-(8-fluoro-2,3-dihydrobenzo[b][1,4]dioxin-6-yl)-1-hydroxy-3-(pyrrolidin-1-yl)propan-2-yl)-1-(6-fluoronaphthalen-2-yl)pyrrolidine-3-carboxamide] |

Further lines, the compound ahead of its results:

| Structure (SMILES) | IC50 |
| --- | --- |
| O=C(N[C@H](CN1CCCC1)[C@H](O)c1ccc2c(c1)OCCO2)C1CCN(c2ccc3ccsc3c2)C1 (stereo partly drawn) [Compound 53C, 1-(benzo[b]thiophen-6-yl)-N-((1R,2R)-1-(2,3-dihydrobenzo[b][1,4]dioxin-6-yl)-1-hydroxy-3-(pyrrolidin-1-yl)propan-2-yl)pyrrolidine-3-carboxamide] | 0.03 to 0.1 µM |
| O=C(N[C@H](CN1CCCC1)[C@H](O)c1ccc2c(c1)OCCO2)[C@H]1CCN(c2ccc3ccsc3c2)C1 [Compound 53D, (S)-1-(benzo[b]thiophen-6-yl)-N-((1R,2R)-1-(2,3-dihydrobenzo[b][1,4]dioxin-6-yl)-1-hydroxy-3-(pyrrolidin-1-yl)propan-2-yl)pyrrolidine-3-carboxamide] | 0.001 to 0.03 µM |

same assay, conditions: Table 2; class symbols D, E, F, NA (not active); the table does not say which of the assays

| Data Range (% inhibition) | Structure (SMILES) |
| --- | --- |
| F (1-49% (or less than 50%)) | CN1CCC(Oc2ccc([C@@H](O)[C@@H](CN3CCCC3)NC(=O)[C@H]3CCN(c4ccc(Cl)cc4)C3)cc2Cl)CC1 [Compound 49A, (S)-N-((1R,2R)-1-(3-chloro-4-((1-methylpiperidin-4-yl)oxy)phenyl)-1-hydroxy-3-(pyrrolidin-1-yl)propan-2-yl)-1-(4-chlorophenyl)pyrrolidine-3-carboxamide] |
| E (50-74% (or less than 75%)) | O=C(N[C@H](CN1CCCC1)[C@H](O)c1ccc(OC2CCOCC2)c(Cl)c1)[C@H]1CCN(c2ccc3cc(F)ccc3c2)C1 [Compound 50A, (S)-N-((1R,2R)-1-(3-chloro-4-((tetrahydro-2H-pyran-4-yl)oxy)phenyl)-1-hydroxy-3-(pyrrolidin-1-yl)propan-2-yl)-1-(6-fluoronaphthalen-2-yl)pyrrolidine-3-carboxamide] |
| E (50-74% (or less than 75%)) | O=C(N[C@H](CN1CCCC1)[C@H](O)c1cc(F)c2c(c1)OCCO2)[C@H]1CCN(c2ccc3cc(F)ccc3c2)C1 [Compound 52A, (S)-N-((1R,2R)-1-(8-fluoro-2,3-dihydrobenzo[b][1,4]dioxin-6-yl)-1-hydroxy-3-(pyrrolidin-1-yl)propan-2-yl)-1-(6-fluoronaphthalen-2-yl)pyrrolidine-3-carboxamide] |

The remaining lines, values behind:

| Structure (SMILES) | Data Range (% inhibition) |
| --- | --- |
| CC1(C)CCc2cc([C@@H](O)[C@@H](CN3CCCC3)NC(=O)[C@@H]3CCN(c4ccc(Cl)cc4)C3)ccc2O1 [Compound 51, (R)-1-(4-chlorophenyl)-N-((1R,2R)-1-(2,2-dimethylchroman-6-yl)-1-hydroxy-3-(pyrrolidin-1-yl)propan-2-yl)pyrrolidine-3-carboxamide] | F (1-49% (or less than 50%)) |
| CC1(C)CCc2cc([C@@H](O)[C@@H](CN3CCCC3)NC(=O)[C@H]3CCN(c4ccc(Cl)cc4)C3)ccc2O1 [Compound 51A, (S)-1-(4-chlorophenyl)-N-((1R,2R)-1-(2,2-dimethylchroman-6-yl)-1-hydroxy-3-(pyrrolidin-1-yl)propan-2-yl)pyrrolidine-3-carboxamide] | NA (not active—a negative value was generated for % inhibition) |
| O=C(N[C@H](CN1CCCC1)[C@H](O)c1ccc2c(c1)OCCO2)[C@@H]1CCN(c2ccc3ccsc3c2)C1 [Compound 53, (R)-1-(benzo[b]thiophen-6-yl)-N-((1R,2R)-1-(2,3-dihydrobenzo[b][1,4]dioxin-6-yl)-1-hydroxy-3-(pyrrolidin-1-yl)propan-2-yl)pyrrolidine-3-carboxamide] | E (50-74% (or less than 75%)) |
